Publication PMC8443589, “Modelling human liver fibrosis in the context of non-alcoholic steatohepatitis using a microphysiological system” (Communications Biology, 2021)
“And” between values parts separate entries of the source, which are not always exact repeats. Equal entries are not always repeated.

Legend:
human NASH patients = details: cited from earlier work
[1] = test system: liver MPS NASH model (PHH, KC and HSC co-cultures, high fat); assay: Quantitative confocal imaging of collagen type 1 and alpha SMA in liver MPS NASH model dosed with OCA or ELF; type: cell-based, human; details: for Collagen type 1 fluroscent marker intensity: per MPS scaffold; for reduction of collagen-1 deposition / reduction of α-SMA expression: fat only NASH model, 10 days; for reduction of α-SMA expression: concentration-dependent
Method: Fig. 3 Obeticholic acid and Elafibranor both modulate inflammatory and fibrosis phenotype in liver MPS NASH model and phenotype can additionally be reversed with dietary changes. PHH, KC and HSC co-cultures were cultured in the MPS platform under high fat conditions and dosed with varying concentrations of Obeticholic acid (OCA) and Elafibranor (ELF) QD or vehicle control (control) for 10 days, following an initial 4-day pre-culture phase. a The secreted cytokine profile from liver microtissues was compared by Luminex to determine the effects of each compound on the inflammatory profile of the liver with samples analysed at day 8 and 14 of the culture. Data were normalised by Z-transformation to allow comparison of all analytes and presented as a heatmap. b The expression of fibrosis-associated genes was analysed in total RNA from control, OCA and ELF treated liver microtissues (highest concentration for each compound) using Human Fibrosis RT2 Profiler PCR Arrays. Gene expression changes are expressed as a fold change over control. c Liver microtissues were stained for collagen-type I, α-SMA, nuclei (DAPI - blue), phalloidin (green) and imaged by confocal microscopy. Representative images are shown and scale bars 200 µm. d Staining of microtissue was quantified by measuring total fluorescence intensity throughout individual microtissues, each data point represents an average of all the microtissues imaged within an MPS scaffold (min 8, max 20 microtissues). e PHH, KC and HSC co-cultures were cultured in the MPS platform under high fat or lean conditions for 30 days. Cultures either remained in the same type of media throughout or were switched at day 15 from fat media to lean media (Fat -> Lean). Cell culture medium samples were analysed for the presence of IL-6, f MCP-1, g TIMP-1, which were measured by ELISA. h Microtissues were stained with Oil-Red O to determine fat loading during culture period, total stain was quantified by absorbance at 510 nm. All datapoints shown, either as box-whisker plots highlighting mean and min-max or with error bars highlighting means ± SD. All data from a minimum of three independent cultures; statistical comparisons made to control samples unless other comparison shown.
To visualise fibrosis proteins in the liver microtissues, scaffolds were fixed for 15 min in 4% paraformaldehyde following culture in the MPS platform. They were permeabilized with 0.1% Triton-X and blocked with 2% BSA before staining overnight at 4 °C with antibodies against alpha SMA (Abcam, UK - ab7817) and collagen 1 (Rockland, USA—600 401 103 0.5). Scaffolds were then stained with fluorescently conjugated secondary antibodies (Alexa-Fluor 555 goat anti-rabbit #A21429; Alexa-Fluor 647 donkey anti-rabbit #A31573; Alexa-Fluor 555 goat anti-mouse #A21424; Alexa-Fluor 647 goat anti-mouse #A21235 (Thermofisher, UK) along with Phalloidin 488 (Thermofisher, UK) and Hoechst 33342 (Invitrogen) for 1.5 h at room temperature. Scaffolds were washed three times with PBS and mounted onto glass microscope slides with anti-fade mounting medium. Confocal fluorescent images of the stained scaffolds were captured using a Cell Voyager 7000 (CV700, Yokogawa Inc.) automated confocal microscope. Image acquisition was controlled using the SearchFirst functionality of the Wako Software suite (Fujifilm Wako Automation). A workflow was designed to automatically locate and acquire images of each scaffold in a consistent and unbiased manner (Supp. Fig. 1). The workflow consisted of a first round of acquisition where the entire slide is imaged at low (4×) magnification capturing the Hoechst channel only. Images were automatically stitched together using a MATLAB script and eight regions of interest (ROI) were identified on each scaffold (same array of ROI per scaffold). XY coordinates were fed back to the microscope which subsequently imaged each ROI with full Z stacks obtained at ×10 magnification, 120 µm stack with a 5 µm slice interval. […]

[2] = test system: liver MPS NASH model (PHH, KC and HSC co-cultures, high fat); assay: Cell health in dosed NASH microtissues: tissue density (Hoechst) and albumin production (ELISA); type: cell-based, human; details: for cytotoxicity in NASH microtissues: QD for 10 days
Method: Following 10 days of compound treatment (Supp. Fig. 6a), NASH microtissues were assessed for the production of inflammatory and fibrotic biomarkers (Fig. 3a), the expression of pro-fibrotic genes (Fig. 3b) and the expression of collagen-1 and alpha SMA (Fig. 3c, d). […] Crucially using the developed quantitative imaging approach, both OCA and ELF abrogated α-SMA expression in a concentration-dependent manner by up to 50% and collagen-1 deposition was reduced by up to 35% (Fig. 3d).
Soluble biomarkers in cell culture medium from the MPS were analysed by enzyme-linked immunosorbent assay (ELISA); IL-6 was measured by Human IL-6 DuoSet ELISA (R&D Systems); MCP-1 was measured by Human CCL2/MCP-1 DuoSet ELISA (R&D Systems); pro-collagen 1 was measured by Human Pro-Collagen I α1 DuoSet (R&D Systems); TIMP-1 was measured by Human TIMP-1 Quantikine ELISA Kit (R&D Systems); Fibronectin was measured by Human Fibronectin DuoSet ELISA (R&D Systems); YKL-40 was measured by Human Chitinase 3-like 1 Quantikine ELISA Kit (R&D Systems); Albumin secretion was measured by Human Albumin AssayMax™ ELISA kit (Assay Pro, St. Charles, MO). For all assays, the manufacturer’s protocol was followed.
Supplemental Figure 6 – Treatment of NASH microtissues in MPS platform with Obeticholic acid and […]
PHH, KC and HSC co-cultures were cultured in the MPS platform under high fat conditions and dosed with varying concentrations of Obeticholic acid (OCA) and Elafibranor (ELF) dosed QD for 10 days, following an initial 4-day pre-culture phase. A) Overview of the experimental timeline. B) Tissue density of scaffolds from each control was assessed by quantifying Hoechst staining in each FOV (8 FOV per culture) at the end of the study. C) Albumin production between conditions was compared by ELISA at two timepoints. All datapoint are shown and error bars highlight means ± SD.
(1 picture or pasted object on this page, not shown here)

Structure (SMILES)	NASH resolution, post-hoc analysis of the GOLDEN-505 phase 2b trial (human NASH patients; 120 mg)	NASH resolution and fibrosis improvement in phase 3 trial (human NASH patients; 16-month interim analysis)	Collagen type 1 fluroscent marker intensity ([1]; ELF 13 uM QD 10 days, listed as ELF)	reduction of collagen-1 deposition [1]	reduction of α-SMA expression [1]	cytotoxicity in NASH microtissues [2]	Albumin production ([2]; higher doses, 10 days of compound treatment)	NASH resolution in phase 3 trial (human NASH patients; 18-month interim analysis)	liver fibrosis in phase 3 trial (human NASH patients; 18-month interim analysis)	Collagen type 1 fluroscent marker intensity ([1]; OCA 0.25 uM QD 10 days, listed as OCA)	Collagen type 1 fluroscent marker intensity ([1]; OCA 5 uM QD 10 days, listed as OCA)
CSc1ccc(C(=O)/C=C/c2cc(C)c(OC(C)(C)C(=O)O)c(C)c2)cc1 [Elafibranor]	significant effect on NASH resolution	did not reach statistical significance	1659.63 and 1182.93 and 1579.82 and 1137.61 and 1507.1	up to 35%	up to 50%	does not cause cytotoxicity	slightly reduce albumin production				
CC[C@H]1[C@@H](O)[C@@H]2[C@H](CC[C@]3(C)[C@@H]([C@H](C)CCC(=O)O)CC[C@@H]23)[C@@]2(C)CC[C@@H](O)C[C@@H]12 [Obeticholic acid]				up to 35%	up to 50%	does not cause cytotoxicity		did not reach statistical significance	improved liver fibrosis	2993.61 and 2644.36 and 2590.02 and 1579.53	1471.67 and 1379.09 and 1471.56 and 1817.03 and 1176.35 and 1231.08
